Assay results as given in ChEMBL document CHEMBL1121402, “Antitumor agents: diazomethyl ketone and chloromethyl ketone analogues prepared from N-tosyl amino acids” (1980).

Columns and labels:
[1] = species: Mus musculus; test: Percentage inhibition as antitumor activity in carcinoma CF1 male mice.; type: functional; set-up: concentration or dose not given beside the values
[2] = species: Mus musculus; test: Anticarcinoma activity of Diazomethyl Ketone against Ehrlich ascites Carcinoma pharmacological screens were reported; 6/6; type: functional
[3] = species: Mus musculus; test: Volume of ascrit fluid collected 8 days after tumor transplantation in mice; type: functional
[4] = Screening of Ehrlich ascites carcinoma cells in mice at 20 mg/kg/day intraperitoneally.; type: functional, Mus musculus; conditions: route intraperitoneal
[5] = tested on: P388; test: Survival of the mice for average number of days; expressed as average survival days; type: functional, Mus musculus
[6] = species: Mus musculus; test: Volume of fluid collected 8 days after tumor transplantation in mice.; type: functional; set-up: unit not given beside the values
[7] = tested on: P388; test: T/C expresses antileukemic activity measured as tested over that of control.; type: functional, Mus musculus
[8] = species: Mus musculus; test: Anticarcinoma activity of Diazomethyl Ketone against Ehrlich ascites Carcinoma pharmacological screens were reported; 5/8; type: functional
[9] = species: Mus musculus; test: Anticarcinoma activity of Diazomethyl Ketone against Ehrlich ascites Carcinoma pharmacological screens were reported; 5/6; type: functional
[10] = species: Mus musculus; test: Anticarcinoma activity of Diazomethyl Ketone against Ehrlich ascites Carcinoma pharmacological screens were reported; 8/8; type: functional
[11] = tested on: P388; test: T/C expresses antileukemic activity measured as tested over that of control; T/C >/= 120 for significant activity; type: functional, Mus musculus
[12] = species: Mus musculus; test: Anticarcinoma activity of Diazomethyl Ketone against Ehrlich ascites Carcinoma pharmacological screens were reported; 7/8; type: functional
[13] = species: Mus musculus; test: Anticarcinoma activity of Diazomethyl Ketone against Ehrlich ascites Carcinoma pharmacological screens were reported; 12/12; type: functional
[14] = tested on: P388; test: T/C expresses antileukemic activity measured as tested over that of control; type: functional, Mus musculus
[15] = tested on: Mus musculus; test: Screening of Ehrlich ascites carcinoma cells in mice at 20 mg/kg/day, intraperitoneally; type: functional; conditions: route intraperitoneal

SMILES | Inhibition [1] | Survival after 10 days [2] | ascrit [4] | Survival [5] | Volume of ascrit fluid [6] | T/C [7] | Survival after 10 days [9] | also measured
Cc1ccc(S(=O)(=O)NC(C(=O)CCl)C(C)C)cc1 (stereo unspecified) | 91.4% | 6 | 46.9 |  |  |  |  | Volume of ascrit fluid [3]: 0.63
CCC(C)C(NS(=O)(=O)c1ccc(C)cc1)C(=O)CCl (stereo unspecified) | 86.6% |  | 34.5 | 10.5 days | 1.34 | 109 |  | Survival after 10 days [8]: 5
Cc1ccc(S(=O)(=O)NC(C)C(=O)C=[N+]=[N-])cc1 (stereo unspecified) | 87.1% |  |  | 11.6 days | 1.02 | 120 | 5 | 
Cc1ccc(S(=O)(=O)NC(C)C(=O)CCl)cc1 (stereo unspecified) | 78.4% |  | 46.5 |  | 1.6 |  |  | Survival after 10 days [10]: 8
C=COC(=O)C(Cc1ccccc1)NS(=O)(=O)c1ccc(C)cc1 (stereo unspecified) | 56.8% |  | 19.2 |  | 7.74 |  | 5 | 
N#CCOC(=O)C(Cc1ccc(O)cc1)NC(=O)OCc1ccccc1 (stereo unspecified) | 38% | 6 | 19.7 |  | 10.82 |  |  | 
Cc1ccc(S(=O)(=O)N2CCC[C@H]2C(=O)C=[N+]=[N-])cc1 | 92.7% | 6 | 39.8 |  | 0.63 |  |  | 
Cc1ccc(S(=O)(=O)NCC(=O)CCl)cc1 | 99.9% |  | 0.01 | 13.2 days | 0.04 |  | 5 | T/C [11]: 137
Cc1ccc(S(=O)(=O)NCCCCCC(=O)CCl)cc1 | 99.9% |  | 0.01 | 11.2 days | 0.02 | 116 | 5 | 
Cc1ccc(S(=O)(=O)NC(CC(C)C)C(=O)C=[N+]=[N-])cc1 (stereo unspecified) | 92.2% | 6 | 42.5 | 12.1 days | 0.63 |  |  | T/C [11]: 125
Cc1ccc(S(=O)(=O)N2C(=O)CCC2C(=O)CCl)cc1 (stereo unspecified) | 91.4% |  | 31 | 12.8 days | 0.95 |  |  | T/C [11]: 133; Survival after 10 days [12]: 7
C=COC(=O)C(Cc1ccc(O)cc1)NS(=O)(=O)c1ccc(C)cc1 (stereo unspecified) | 75% | 6 | 17.5 |  | 4.92 |  |  | 
CCC(C)C(NS(=O)(=O)c1ccc(C)cc1)C(=O)C=[N+]=[N-] (stereo unspecified) | 74.7% |  | 45.4 | 12.1 days | 1.92 |  | 5 | T/C [11]: 126
Cc1ccc(S(=O)(=O)NCCC(=O)C=[N+]=[N-])cc1 | 78.8% | 6 | 44 | 11.5 days | 1.66 | 119 |  | 
Cc1ccc(S(=O)(=O)N2C(=O)CCC2C(=O)C=[N+]=N)cc1 (stereo unspecified) | 94.4% | 6 | 32 |  | 0.6 |  |  | 
Cc1ccc(S(=O)(=O)NC(CC(C)C)C(=O)CCl)cc1 (stereo unspecified) | 80.4% |  | 25.5 | 10.3 days | 2.65 | 107 |  | Survival after 10 days [10]: 8
Cc1ccc(S(=O)(=O)NCC(=O)C=[N+]=[N-])cc1 | 99.5% | 6 | 56 |  | 0.03 |  |  | 
Cc1ccc(S(=O)(=O)N2CCCC2C(=O)CCl)cc1 (stereo unspecified) | 76.5% |  | 30 | 10.2 days | 2.7 | 106 |  | Survival after 10 days [8]: 5
Cc1ccc(S(=O)(=O)NCCCCCC(=O)C=[N+]=[N-])cc1 | 93.8% |  | 42.5 | 11.8 days | 0.5 | 122 | 5 | 
Cc1ccc(S(=O)(=O)NC(Cc2ccc(O)cc2)C(=O)OCC#N)cc1 (stereo unspecified) | 56% |  | 15.8 |  | 9.36 |  | 5 | 
Cc1ccc(S(=O)(=O)NC(C(=O)C=[N+]=[N-])C(C)C)cc1 (stereo unspecified) | 85.5% | 6 | 52.7 |  | 0.93 |  |  | 
Cc1ccc(S(=O)(=O)NCCC(=O)CCl)cc1 | 99.9% |  | 0.1 | 9.8 days | 0.02 | 101 | 5 | 
Cc1ccc(S(=O)(=O)N[C@H](C)C(=O)CCl)cc1 | 98.6% |  | 18.9 | 11 days | 0.25 | 114 | 5 | 
O=c1[nH]cc(F)c(=O)[nH]1 [FLUOROURACIL] | 0% |  | 32.4 | 9.66 days | 0.98 |  |  | Survival after 10 days [13]: 12; T/C [14]: 100
N[C@@H](Cc1ccc(N(CCCl)CCCl)cc1)C(=O)O [MELPHALAN] | 99.9% | 6 | 0.1 |  | 3 |  |  | 
Sc1ncnc2nc[nH]c12 [MERCAPTOPURINE ANHYDROUS] | 99.9% | 6 |  |  | 0.3 |  |  | ascrit [15]: 0.7
